Structures can show the parent of a compound that is named as a salt. Where two headings read alike, the source gives them in different places. One block for each molecule: values may come before it.
What was measured:
[1] = Pharmacokinetics of oral vs intra-cecal tacrolimus: blood, rectal contents, GI tissue and luminal content (Example 13); parameters: species or system Yorkshire-Cross farm swine; settings: in vivo
Description: (§1) No further randomization procedure was employed.

[2] = Tacrolimus blood concentration and AUC0-12 hours after IC or PO administration; settings: female, Yorkshire-Cross, swine, in vivo
Protocol: FIG. 77 is a graph showing the mean concentration of tacrolimus in the blood 1 hour, 2 hours, 3 hours, 4 hours, 6 hours and 12 hours after intracecal (IC) or oral administration (PO) of tacrolimus to swine as described in Example 13.
FIG. 78 is a graph showing the AUC0-12 hours of tacrolimus in the blood after intracecal (IC) or oral administration (PO) of tacrolimus in swine as described in Example 13.
FIG. 87 is a graph showing the mean concentration of tacrolimus in the blood of swine 1 hour, 2 hours, 3 hours, 4 hours, 6 hours, and 12 hours after intracecal (IC) or oral administration (PO) of tacrolimus as described in Example 10.
FIG. 88 is a graph showing the AUC0-12 hours of tacrolimus in the blood of swine after intracecal (IC) or oral administration (PO) of tacrolimus as described in Example 10.

[3] = female, Yorkshire-Cross, swine, in vivo, po, 0.09 mg/kg
Protocol: FIG. 76 is a graph showing the mean concentration of tacrolimus in the cecum tissue and the proximal colon tissue 12 hours after intracecal or oral administration of tacrolimus to swine as described in Example 10.
FIG. 79 is a graph showing the mean concentration of tacrolimus in the cecum tissue, the proximal colon tissue, the spiral colon tissue, the transverse colon tissue, and the distal colon tissue after intracecal (IC) or oral administration (PO) of tacrolimus in swine as described in Example 13. ****P<0.0001, ***P<0.001.
FIG. 90 is a graph showing the mean concentration of tacrolimus in the cecum, the proximal colon, the spiral colon, the transverse colon, and the distal colon of swine after intracecal (IC) or oral administration (PO) of tacrolimus as described in Example 10.

[4] = Tissue, plasma, rectal sample and GI content pharmacokinetics of tacrolimus, oral vs intra-cecal ingestible device (Example 10); parameters: species or system Yorkshire-Cross farm swine; settings: in vivo
Protocol: The primary objective of this study was to compare the tissue, plasma, rectal sample, and GI content pharmacokinetics of tacrolimus through oral versus intra-cecal ingestible device delivery in normal Yorkshire-Cross farm swine.
as §1
Animals in Group 1 received an ingestible device containing 0.8 mL of vehicle solution (80% alcohol, 20% HCO-60). Animals in Group 2 received orally […] liquid formulation of tacrolimus at 4 mg/0.8 mL per animal (Prograf: 5 mg/mL). Animals in Group 3 received intra-cecally an ingestible device containing tacrolimus at 1 mg in 0.8 mL per ingestible device. Animals in Group 4 received intra-cecally an ingestible device containing tacrolimus at 2 mg in 0.8 mL per ingestible device. Animals in Group 5 received intra-cecally an ingestible device containing tacrolimus at 4 mg in 0.8 mL per ingestible device. To control for potential confounding effects of the surgery, all groups fast on Day −11 at least 24 hr before being subjected to anesthesia followed by surgical placements of a cecal port by a veterinary surgeon at Day −10. All animals were fasted for at least 12 hr prior to dosing on Day 1. Animals were dosed via either intra-cecal dosing (IC) or oral dosing (PO) at Day 1 (between 6-8 p.m.). All animals resumed feeding at approximately 4 hours after dose (11-12 p.m. after dosing).
Animals in Group 1 (Vehicle Control) were administered a single intra-cecal ingestible device containing 0.8 mL Vehicle solution (80% alcohol, 20% castor oil (HCO-60) on Day 1. On Day −10 the animals were anesthetized, and a veterinary surgeon surgically placed an intra-cecal port in each animal. On Day 1, each animal was placed into a sling then a single intra-cecal ingestible device containing 0.8 mL vehicle solution (80% alcohol, 20% castor oil (HCO-60)) is introduced by the veterinary surgeon into the cecum via the cecal port in each animal. Following ingestible device placement, the animals were removed from the slings and placed back into their pens with water. All animals resumed feeding at approximately 4 hours after dose. […] A total of 60 samples were collected.
Approximately 200˜400 mg of rectal content were collected, if available, with a fecal swab (Copan Diagnostics Nylon Flocked Dry Swabs, 502CS01). The fecal swab was pre-weighed and weighed after collection in the collection tube (Sterile Tube and Cap No Media, PFPM913S), and the sample weight was recorded. The fecal swab was broken via the breakpoint, and was stored in the collection tube, and immediately frozen at −70° C. […] Immediately following euthanasia, tissue was collected.
For tissue necropsy, small intestine fluid and cecal fluid were collected separately from all the animals into two separate square plastic bottles, and stored at −20° C. The length and diameter of the cecum and the colon was measured from one animal in each group and recorded for reference. Tissues were collected for pharmacokinetic analyses and include mesenteric lymph nodes, a Peyer's Patch, and five gastrointestinal sections, including cecum, proximal colon, transverse colon, distal colon, and rectum. All samples were weighed, and the tissue sample weights were recorded. […] Around 3 grams of the total punched sample were collected into a pre-weighed 15-mL conical tube, and the tissue weight was recorded. […]

[5] = system: IL-6, GM-CSF, IL-15, IL-2, IL-12, IL-13, TNF-α, INF-γ

concentration at 12 h ([1]; female, Yorkshire-Cross, swine, 0.02 mg/kg, Trough (12 hr)): 0.746 ± 0.038 ng/mL
concentration at 12 h ([1]; female, Yorkshire-Cross, swine, 0.04 mg/kg, Trough (12 hr)): 1.96 ± 0.491 ng/mL
concentration at 12 h ([1]; female, Yorkshire-Cross, swine, 0.09 mg/kg, Trough (12 hr)): 4.35 ± 0.561 ng/mL
Ratio Tissue(mean)/Trough(12 hr) ([1]; female, Yorkshire-Cross, swine, po, 0.09 mg/kg, 12 h): 0
Kp at 12 h ([1]; female, Yorkshire-Cross, swine, po, 0.09 mg/kg, Ratio Tissue(mean)/Trough(12 hr)): 0
concentration at 12 h ([1]; female, Yorkshire-Cross, swine, po, 0.09 mg/kg, Trough (12 hr)): 0.568 ± 0.291 ng/mL
concentration at 12 h ([1]; female, Yorkshire-Cross, swine, po, 0.09 mg/kg, Trough level (12 hr)): 0.568 ng/mL
mean concentration of tacrolimus in the spiral colon lumen, the transverse colon lumen, and the distal colon lumen [1]: statistically higher
mean concentration of tacrolimus in the spiral colon tissue and the transverse colon tissue [1]: statistically higher
mean concentration and AUC0-12 hours of tacrolimus in the blood ([1]; po, 0.09 mg/kg): higher
concentration at 12 h ([2]; 0.02 mg/kg): 0.746 ± 0.038 ng/mL
concentration at 12 h ([2]; 0.04 mg/kg): 1.96 ± 0.491 ng/mL
concentration at 12 h ([2]; 0.09 mg/kg): 4.35 ± 0.516 ng/mL
concentration at 12 h ([2]; po, 0.09 mg/kg): 0.568 ± 0.291 ng/mL
Tissue(mean) (ng/g)/AUG(0-12 hr) (ng · hr/mL) Ratio [3]: 0
Tissue(mean) (ng/g)/AUG(0-12 hr) (ng · hr/mL) Ratio ([3]; 12 h): 0
exposure AUC [4]: < 2000-12 ng·h/mL
mean concentration of tacrolimus in the cecum tissue and the proximate colon tissue [4]: higher
tissue (spiral and transverse colon) and luminal content (spiral, transverse, and distal colon) concentrations [4]: Significantly higher
level of tacrolimus in tissue ([4]; po): No measurable level
rectal content concentration ([4]; po): no detectable level
Structure (SMILES): C=CC[C@@H]1/C=C(\C)C[C@H](C)C[C@H](OC)[C@H]2O[C@@](O)(C(=O)C(=O)N3CCCC[C@H]3C(=O)O[C@H](/C(C)=C/[C@@H]3CC[C@@H](O)[C@H](OC)C3)[C@H](C)[C@@H](O)CC1=O)[C@H](C)C[C@@H]2OC [tacrolimus]

Structure (SMILES): C[C@@H]1CCN(C(=O)CC#N)C[C@@H]1N(C)c1ncnc2[nH]ccc12 [tofacitinib citrate]
IL-6 expression in plasma ([5]; PO or IC administration, 1 h and 3 h post-treatment): inhibition of IL-6 expression
inhibition of IL-6 expression in colon tissue ([5]; all IC treated groups and high dose PO group (45 mg/kg) (FIG. 112B)): sustained through 24 h post-dose
GM-CSF levels in plasma or colon tissue ([5]; between IC and PO treatment groups): nor was there a significant difference
IL-6 inhibition in colon tissue ([5]; low dose PO group (15 mg/kg), by 12 h post-dose): Recovery from IL-6 inhibition was observed
